Molecular target: T1, human PTH1 receptor (Homo sapiens, UniProt Q03431)
T1 sequence (Q03431 27-593): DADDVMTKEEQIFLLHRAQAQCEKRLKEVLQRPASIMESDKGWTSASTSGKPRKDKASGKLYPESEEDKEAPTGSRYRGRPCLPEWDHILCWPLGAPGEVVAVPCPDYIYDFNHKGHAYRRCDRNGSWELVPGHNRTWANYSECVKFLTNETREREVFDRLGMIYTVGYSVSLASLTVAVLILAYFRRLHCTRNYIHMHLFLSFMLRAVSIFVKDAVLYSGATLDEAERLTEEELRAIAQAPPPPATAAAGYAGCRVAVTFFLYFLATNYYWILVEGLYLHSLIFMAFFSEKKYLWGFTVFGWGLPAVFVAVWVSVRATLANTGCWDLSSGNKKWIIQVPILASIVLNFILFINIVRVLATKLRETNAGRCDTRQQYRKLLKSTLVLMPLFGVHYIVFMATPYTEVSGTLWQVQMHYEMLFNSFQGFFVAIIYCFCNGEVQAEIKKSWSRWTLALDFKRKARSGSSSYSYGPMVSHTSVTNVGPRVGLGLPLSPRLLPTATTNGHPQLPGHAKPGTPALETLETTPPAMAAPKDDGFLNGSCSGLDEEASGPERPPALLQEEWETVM
Assay: In vitro cAMP signal activity in HKRK-B7 cells (LLC-PK1 cells overexpressing the human PTH1 receptor)
Assay type: cell-based
Settings: HKRK-B7 cells; compound at 1×10^−3 M; cAMP produced as percentage of that produced by hPTH(1-34) at 100 nM

SMILES | cAMP production activity (%)
Cc1ccc(C(=O)N(C)CCO)cc1CCS(=O)(=O)N1CCC2(CC1)N=C(c1cccc(OC(F)(F)F)c1)NC2=O [Compound 413, N-(2-hydroxy-ethyl)-4,N-dimethyl-3-{2-[4-oxo-2-(3-trifluoromethoxy-phenyl)-1,3,8-triaza-spiro[4.5]dec-1-ene-8-sulfonyl]-ethyl}-benzamide] | 56
Cc1cc2ccc1CCS(=O)(=O)N1CCC3(CC1)N=C(NC3=O)c1cc(cc(C(F)(F)F)c1)OCCCCCCCCN(C)C2=O [Compound 1412] | 7.2
Cc1cc(S(=O)(=O)NC2CCC(O)CC2)ccc1/C=C/S(=O)(=O)N1CCC2(CC1)N=C(c1cccc(C(F)(F)F)c1)NC2=O (stereo not drawn) [Compound 592, N-(4-hydroxy-cyclohexyl)-3-methyl-4-{(E)-2-[4-oxo-2-(3-trifluoromethyl-phenyl)-1,3,8-triaza-spiro[4.5]dec-1-ene-8-sulfonyl]-vinyl}-benzenesulfonamide] | 87
O=C1NC(CCCCCCCC(F)(F)C(F)(F)F)=NC12CCN(S(=O)(=O)CCc1cccc3c1ccn3C[C@H](O)CO)CC2 [Compound 788, 8-{2-[1-((S)-2,3-dihydroxy-propyl)-1H-indol-4-yl]-ethanesulfonyl}-2-(8,8,9,9,9-pentafluoro-nonyl)-1,3,8-triaza-spiro[4.5]dec-1-en-4-one] | 142
Cc1cc(N(C)C(N)=O)cc(C)c1CCS(=O)(=O)N1CCC2(CC1)N=C(c1cccc(CCCC(F)(F)F)c1)NC2=O [Compound 1359, 1-[3,5-dimethyl-4-(2-{4-oxo-2-[3-(4,4,4-trifluoro-butyl)-phenyl]-1,3,8-triaza-spiro[4.5]dec-1-ene-8-sulfonyl}-ethyl)-phenyl]-1-methyl-urea] | 165
Cc1cc(N(C)C(N)=O)cc(C)c1CCS(=O)(=O)N1CCC2(CC1)N=C(c1ccc(CCCC(F)(F)F)cc1)NC2=O [Compound 1358, 1-[3,5-dimethyl-4-(2-{4-oxo-2-[4-(4,4,4-trifluoro-butyl)-phenyl]-1,3,8-triaza-spiro[4.5]dec-1-ene-8-sulfonyl}-ethyl)-phenyl]-1-methyl-urea] | 153
Cc1cc(C(=O)N2CC(O)C2)cc(C)c1/C=C/S(=O)(=O)N1CCC2(CC1)N=C(c1cccc(OC(F)(F)F)c1)NC2=O [Compound 408, 8-{(E)-2-[4-(3-hydroxy-azetidine-1-carbonyl)-2,6-dimethyl-phenyl]-ethenesulfonyl}-2-(3-trifluoromethoxy-phenyl)-1,3,8-triaza-spiro[4.5]dec-1-en-4-one] | 117
Cc1cc(C(=O)N2CCSC2)ccc1CCS(=O)(=O)N1CCC2(CC1)N=C(c1cccc(OC(F)(F)F)c1)NC2=O [Compound 417, 8-{2-[2-methyl-4-(thiazolidine-3-carbonyl)-phenyl]-ethanesulfonyl}-2-(3-trifluoromethoxy-phenyl)-1,3,8-triaza-spiro[4.5]dec-1-en-4-one] | 97
O=C1NC(C2CCCCC2)=NC12CCN(S(=O)(=O)/C=C/c1ccc(S(=O)(=O)N(CCO)CCO)cc1C(F)(F)F)CC2 [Compound 496, 4-[(E)-2-(2-cyclohexyl-4-oxo-1,3,8-triaza-spiro[4.5]dec-1-ene-8-sulfonyl)-vinyl]-N,N-bis-(2-hydroxy-ethyl)-3-trifluoromethyl-benzenesulfonamide] | 24
Cc1cc(C(=O)N2CCC(C)(O)CC2)cc(C)c1/C=C/S(=O)(=O)N1CCC2(CC1)N=C(c1ccc(Cl)c(OCC(F)(F)C(F)(F)F)c1)NC2=O [Compound 1230, 2-[4-chloro-3-(2,2,3,3,3-pentafluoro-propoxy)-phenyl]-8-{(E)-2-[4-(4-hydroxy-4-methyl-piperidine-1-carbonyl)-2,6-dimethyl-phenyl]-ethenesulfonyl}-1,3,8-triaza-spiro[4.5]dec-1-en-4-one] | 64

Other lines, results leading:

cAMP production activity (%) | SMILES
48 | Cc1cc(CN2C(=O)NC(C)(C)C2=O)cc(C)c1CCS(=O)(=O)N1CCC2(CC1)N=C(C1CCC(C)CC1)NC2=O (stereo not drawn) [Compound 780, 3-(3,5-dimethyl-4-{2-[2-(4-methyl-cyclohexyl)-4-oxo-1,3,8-triaza-spiro[4.5]dec-1-ene-8-sulfonyl]-ethyl}-benzyl)-5,5-dimethyl-imidazolidine-2,4-dione]
66 | O=C(CNc1ccc(/C=C/S(=O)(=O)N2CCC3(CC2)N=C(C2CCCCC2)NC3=O)c(C(F)(F)F)c1)NCCO [Compound 494, 2-{4-[(E)-2-(2-cyclohexyl-4-oxo-1,3,8-triaza-spiro[4.5]dec-1-ene-8-sulfonyl)-vinyl]-3-trifluoromethyl-phenylamino}-N-(2-hydroxy-ethyl)-acetamide]
70 | Cc1cc(NC[C@H](O)CO)ccc1CCS(=O)(=O)N1CCC2(CC1)N=C(c1cccc(Cl)c1)NC2=O [Compound 157, 2-(3-chloro-phenyl)-8-{2-[4-((S)-2,3-dihydroxy-propylamino)-2-methyl-phenyl]-ethanesulfonyl}-1,3,8-triaza-spiro[4.5]dec-1-en-4-one]
55 | CN1CCCc2c(CCS(=O)(=O)N3CCC4(CC3)N=C(C3CCCCC3)NC4=O)cccc21 [Compound 747, 2-cyclohexyl-8-[2-(1-methyl-1,2,3,4-tetrahydro-quinolin-5-yl)-ethanesulfonyl]-1,3,8-triaza-spiro[4.5]dec-1-en-4-one]
53 | O=C1NC(C2CCCCC2)=NC12CCN(S(=O)(=O)CCc1ccccc1C(F)(F)F)CC2 [Compound 323, 2-Cyclohexyl-8-[2-(2-trifluoromethyl-phenyl)-ethanesulfonyl]-1,3,8-triaza-spiro[4.5]dec-1-en-4-one]
87 | Cc1cc(N2C(=O)NC(CO)C2=O)cc(C)c1CCS(=O)(=O)N1CCC2(CC1)N=C([C@H]1CC[C@H](C)CC1)NC2=O (stereo partly drawn) [Compound 1299, 3-(3,5-Dimethyl-4-{2-[2-(4-methyl-cyclohexyl)-4-oxo-1,3,8-triaza-spiro[4.5]dec-1-ene-8-sulfonyl]-ethyl}-phenyl)-5-hydroxymethyl-imidazolidine-2,4-dione]
84 | Cc1cc(C(=O)N(C)C)c(F)cc1CCS(=O)(=O)N1CCC2(CC1)N=C(c1cccc(C(F)(F)F)c1)NC2=O [Compound 418, 2-Fluoro-5,N,N-trimethyl-4-{2-[4-oxo-2-(3-trifluoromethyl-phenyl)-1,3,8-triaza-spiro[4.5]dec-1-ene-8-sulfonyl]-ethyl}-benzamide]
92 | CON(C)C(=O)c1cc(C)c(/C=C/S(=O)(=O)N2CCC3(CC2)N=C(C2CCC(C)CC2)NC3=O)c(C)c1 (stereo not drawn) [Compound 998, N-Methoxy-3,5,N-trimethyl-4-{(E)-2-[2-(4-methyl-cyclohexyl)-4-oxo-1,3,8-triaza-spiro[4.5]dec-1-ene-8-sulfonyl]-vinyl}-benzamide]
84 | CCC[C@@H]1CCC[C@H](C2=NC3(CCN(S(=O)(=O)CCc4ccc(NC(C)=O)cc4C)CC3)C(=O)N2)C1 [Compound 923, N-(3-methyl-4-{2-[4-oxo-2-((1S,3R)-3-propyl-cyclohexyl)-1,3,8-triaza-spiro[4.5]dec-1-ene-8-sulfonyl]-ethyl}-phenyl)-acetamide]
98 | Cc1cc(C(=O)N2CCN(C)CC2)cc(C)c1CCS(=O)(=O)N1CCC2(CC1)N=C(C1CCC(CCC(F)(F)F)CC1)NC2=O (stereo not drawn) [Compound 995, 8-{2-[2,6-Dimethyl-4-(4-methyl-piperazine-1-carbonyl)-phenyl]-ethanesulfonyl}-2-[4-(3,3,3-trifluoro-propyl)-cyclohexyl]-1,3,8-triaza-spiro[4.5]dec-1-en-4-one]
65 | Cc1cc(C(=O)N(C)C)ccc1CCS(=O)(=O)N1CCC2(CC1)N=C(c1cccc(COC(C)C)c1)NC2=O [Compound 130, 4-{2-[2-(3-isopropoxymethyl-phenyl)-4-oxo-1,3,8-triaza-spiro[4.5]dec-1-ene-8-sulfonyl]-ethyl}-3,N,N-trimethyl-benzamide]
50 | Cc1cc(C(=O)N2CCC[C@H]2C(N)=O)ccc1CCS(=O)(=O)N1CCC2(CC1)N=C(c1cccc(C(F)(F)F)c1)NC2=O [Compound 367, (S)-1-(3-methyl-4-{2-[4-oxo-2-(3-trifluoromethyl-phenyl)-1,3,8-triaza-spiro[4.5]dec-1-ene-8-sulfonyl]-ethyl}-benzoyl)-pyrrolidine-2-carboxylic acid amide]
57 | O=C1NC(C2CCCCC2)=NC12CCN(S(=O)(=O)CCc1cc3nc[nH]c3cc1C(F)(F)F)CC2 [Compound 839, 2-cyclohexyl-8-[2-(6-trifluoromethyl-1H-benzimidazol-5-yl)-ethanesulfonyl]-1,3,8-triaza-spiro[4.5]dec-1-en-4-one]
38 | CCCC(CCC)C1=NC2(CCN(S(=O)(=O)CCc3c(C)cc(N(C)C(N)=O)cc3C)CC2)C(=O)N1 [Compound 1041, 1-(3,5-dimethyl-4-{2-[4-oxo-2-(1-propyl-butyl)-1,3,8-triaza-spiro[4.5]dec-1-ene-8-sulfonyl]-ethyl}-phenyl)-1-methyl-urea]

— patent US9169254B2, “Spiroimidazolone derivative” (Chugai Seiyaku Kabushiki Kaisha, priority 2009, dated 2015)
